Experiments:
[1] = molecular target: T1, recombinant human CK2 catalytic subunit (rhCK2α) (Homo sapiens, UniProt P68400); assay: radiometric P81 filter isotopic kinase assay, CK2α; type: biochemical
T1 construct: made in house
Protocol: Synthetic peptide […] served as the substrate for CK2, while peptide […] was used as the substrate for PIM-1.
The synthesized compounds were evaluated for their inhibitory activity against human CK2α, the human CK2 holoenzyme, and PIM-1 using the P81 filter-based isotopic assay, as previously described. […] The experimental data were fitted to a dose–response curve using non-linear regression analysis (variable slope) Y = Bottom + (Top − Bottom)/(1 + 10^((LogIC50 − X) × HillSlope) equation in GraphPad Prism (Prism 9, version 9.0.1).

CCRF-CEM cells = assay: cell cycle progression by flow cytometry, CCRF-CEM; type: cell-based, human; details: 16 µM, 48 h
Protocol: Since CK2 and PIM kinases regulate cell cycle progression, their inhibition may alter the distribution of cells across different cell cycle phases. […] For control cells, the percentage of G2/M cells was 17%. In addition to those changes, we observed cells in the sub-G1 phase, which are apoptotic cells. Accumulation of cells in this phase reflects DNA degradation characteristic of apoptotic cells. The largest percentage of these cells, i.e., 32% was determined in 16 µM 1-treated cells (Figure 6a,b).
(§1) CCRF-CEM and MCF-7 cells were cultured in 6-well plates and treated with the tested compounds for 48 h. After exposure to the compounds, the cells were collected, washed with cold PBS, and fixed in 70% ethanol at –20 °C for at least 24 h. Subsequently, the cells were washed in PBS and stained according to the procedure previously described by our group. The cellular DNA content was measured by flow cytometry using a BD Accuri C6 Plus flow cytometer (BD Biosciences, San Jose, CA, USA). The resulting DNA histograms were analyzed with BD Accuri C6 Plus software (San Diego, CA, USA) to assess the distribution of cells across different phases of the cell cycle.

MCF-7 cells = assay: cell cycle progression by flow cytometry, MCF-7; type: cell-based, human; details: 48 h
Protocol: Additionally, we observed the prolongation of G2/M in MCF-7 treated with 1 at the highest concentration. […] 1 induced G2/M phase arrest in MCF-7 with the highest effect detected for the 16 µM concentration, manifested as 32% cells in that stage, whereas in the control, the percentage of G2/M cells was 22%.
as §1

[2] = test system: caspase-3 in CCRF-CEM cells; assay: caspase-3 activation, flow cytometry, CCRF-CEM; type: cell-based, human; details: 16 µM, 24 h
Protocol: Since caspase-3 is a key protease activated in the early stages of apoptosis, we next investigated whether apoptosis in CCRF-CEM cells is mediated through caspase-3 activation. Both cpd. […] 1. The results are consistent with the previously observed pro-apoptotic properties of derivative 1.
Caspase-3 activity was measured using the FITC Active Caspase-3 Apoptosis Kit (BD Pharmingen, San Jose, CA, USA) according to the manufacturer’s instructions. The stained cells were measured with a BD Accuri C6 Plus flow cytometer.

[3] = test system: PIM-1 kinase in CCRF-CEM cells (Ser112 in BAD); assay: Western blot of phosphorylated BAD (Ser112), marker of PIM kinase activity, CCRF-CEM; type: cell-based, human; details: 16 µM, 24 h, untreated cells = 1
Protocol: (§2) After 24 h of treatment, we assessed site-specific phosphorylation of Ser529 in NF-κB p65 and Ser112 in BAD—a marker of PIM kinase activity—using Western blot analysis (Figure 8). The data for BAD confirmed intracellular inhibition of this kinase by the tested compounds in both cell lines in a dose-dependent manner. A statistically significant decrease in phosphorylated BAD was observed following treatment with 16 µM of compound 1, with relative protein levels reduced to 0.48 and 0.46 in CCRF-CEM and MCF-7 cells, respectively (Figure 8a–c).
(§3) Exponentially growing CCRF-CEM or MCF-7 cells were seeded at a density of 6 × 10^5 cells per 6 cm dish. Compounds were then added, with a final DMSO concentration of 0.5%. Cell lysates were prepared as previously described. The ECL substrate was used for signal detection, and the immunoblots were scanned using a G:BOX Chemi imaging system (Syngene, Cambridge, UK) equipped with GeneSys software, Version 1.4.3.0 (Syngene, Cambridge, UK).
(§4) For densitometric analysis, immunoblots were scanned using the G:BOX Chemi system (Syngene), and the band intensities of phosphorylated and total proteins were quantified with GeneSys software (Syngene, Cambridge, UK). The levels of phosphorylated proteins were normalized to GAPDH, with the value for untreated cells set to 1, and subsequently expressed as a percentage relative to the appropriate control.

[4] = test system: PIM-1 kinase in MCF-7 cells (Ser112 in BAD); assay: Western blot of phosphorylated BAD (Ser112), marker of PIM kinase activity, MCF-7; type: cell-based, human; details: 16 µM, 24 h, untreated cells = 1
Protocol: as §2, §3, §4

[5] = test system: CK2 in CCRF-CEM cells (Ser529 in NF-κB p65); assay: PhosFlow analysis of NF-κB p65 Ser529 phosphorylation, CCRF-CEM; type: cell-based, human; details: 16 µM, 24 h
Protocol: CCRF-CEM cells were prepared following the BD PhosFlow™ Protocol for Human PBMCs using NF-κB p65 (pS529)-PE (#558423), BD PhosFlow™ Perm Buffer III (#558050), Cytofix Fixation Buffer (#554655), and Stain Buffer FBS (#554656), all obtained from Becton Dickinson. Flow cytometric analysis was performed using a BD Accuri C6 Plus cytometer (Becton Dickinson) according to the manufacturer’s instructions.

T1 sequence (P68400 whole entry): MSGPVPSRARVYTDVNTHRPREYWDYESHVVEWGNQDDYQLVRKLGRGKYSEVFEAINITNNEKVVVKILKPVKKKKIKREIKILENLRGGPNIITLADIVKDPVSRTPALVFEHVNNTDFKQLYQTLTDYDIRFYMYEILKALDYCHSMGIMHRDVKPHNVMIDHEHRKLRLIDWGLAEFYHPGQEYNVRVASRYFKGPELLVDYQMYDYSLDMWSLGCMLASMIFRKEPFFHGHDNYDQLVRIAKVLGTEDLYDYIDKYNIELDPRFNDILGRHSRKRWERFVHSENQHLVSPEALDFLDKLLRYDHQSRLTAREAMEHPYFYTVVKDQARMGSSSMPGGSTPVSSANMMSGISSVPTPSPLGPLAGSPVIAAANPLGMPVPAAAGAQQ

IC50 [1]: 6.65 ± 0.74 µM | remaining activity at 2 µM ([1]; cpd. concentration 2 μM, read-out: CK2α Residual Activity [%]): 58.5 ± 2.2% | remaining activity at 5 µM ([1]; cpd. concentration 5 μM, read-out: CK2α Residual Activity [%]): 32.3 ± 0.3% | remaining activity at 20 µM ([1]; cpd. concentration 20 μM, read-out: CK2α Residual Activity [%]): 10.2 ± 0.6%
SMILES: CC(=O)Cn1cnc2c(Br)c(Br)c(Br)c(Br)c21 [compound 1, 1-(4,5,6,7-tetrabromo-1H-benzimidazol-1-yl)propan-2-one]
CCRF-CEM cells in the sub-G1 phase (CCRF-CEM cells): 32% | CCRF-CEM cells in the G2/M phase (CCRF-CEM cells; control 17%): 10% | CCRF-CEM cells in the S phase (CCRF-CEM cells; control 33%): 20% | MCF-7 cells in the S phase (MCF-7 cells; 8 µM, control 17%): 11% | MCF-7 cells in the G2/M phase (MCF-7 cells; 16 µM, control 22%): 32% | CCRF-CEM cells with the active caspase-3 [2]: 60% | relative level of phosphorylated BAD (Ser112), CCRF-CEM [3]: 0.48 | relative level of phosphorylated BAD (Ser112), MCF-7 [4]: 0.46 | p65-P-negative CCRF-CEM cells [5]: 29%

— PMC12193579, “Pro-Apoptotic Activity of 1-(4,5,6,7-Tetrabromo-1H-benzimidazol-1-yl)propan-2-one, an Intracellular Inhibitor of PIM-1 Kinase in Acute Lymphoblastic Leukemia and Breast Cancer Cells” (International Journal of Molecular Sciences, 2025)
